Measured values published in paper PMC6822764, “MitoToxy assay: A novel cell-based method for the assessment of metabolic toxicity in a multiwell plate format using a lactate FRET nanosensor, Laconic” (PLoS ONE, 2019).
Several values for one entry are separate records, joined by “and”; a condition that tells them apart may be missing. Equal values may be shown once. Read-outs that look alike come from different tables or passages of the source.

Experiments:
[1] = test system: MitoTox Reporter cells (MDA-MB-231 expressing Laconic); test: Pilot screening of 13 compounds with MitoTox Reporter cells, multiplate reader; format: cell-based; details: for ΔR% (lactate accumulation): average of 4 replicate wells, Fig 9 legend 30 minutes, 37°C; for Concentration at which toxicity / mitochondrial effects were detected in the pilot screening: tested at 1, 5 and 10 μM
Description: (§1) MitoTox reporter cell line was cultured in Leibowitz media (Gibco) supplemented with 10% of fetal bovine serum (FBS) at 37°C at atmospheric CO2 levels in a 100 mm petri dish. Once cells reached 100% confluency, they were trypsinized using 5% trypsin (Gibco) and washed in PBS. Viability was determine using trypan blue staining and 10,000 cells were seeded into each well of a 96 well plate. Experiments in 96 well format were performed once cells reached 100% confluency after 6 days, during the incubation media was not replaced. All the plates with signal-to-noise ration below 1.3 for monomeric Teal Fluorescent Protein (mTFP) and Venus channels were discarded. Background signal was determined with KRH buffer without cells. Experiments consisted in washing out the culture media using KRH HEPES buffer containing (mM) 136 NaCl, 3 KCl, 1.25 CaCl2, 1.25 MgCl2, 10 HEPES/Tris and pH 7.2 at 37°C with 300 mOsm. Then 200 μl of KRH HEPES buffer without any carbon sources was added to each well and the baseline was measured (RMIN), then 100 μl of buffer was replaced with mitochondrial toxicant/controls and signal was measured to obtain a stimulated response (RMAX). In experiments were pCMBS was used to block lactate exit, the inhibitor was added simultaneously with the mitochondrial toxicants. Data was collected in triplicated after 5, 10, 30, and 60 minutes of incubation. All the experiments in 96 well plates were performed in an EnVision® multiplate reader (PerkinElmer). Each well was excited at 430 nm and the intensity of mTFP and Venus fluorescence emission were recorded at 485 nm and 528 nm, using a set of filters.
(§2) Where R(mTFP/Venus) min corresponded to the minimal change of mTFP/Venus ratio during the single-cell experiments. Results in 96 well plates experiments were expressed by the ΔR%. This parameter was obtained from the difference between the RMAX and RMIN from the same well (before-after experiment) as follow: ΔR%=(R(mTFP/Venus)max−R(mTFP/Venus)min/R(mTFP/Venus)min)x100
Multiple comparisons versus control groups (Holm-Sidak method), Overall significance level P < 0,05.
The capability of the assay to identify previously described toxic drugs was explored through a pilot screening assay. We selected 13 compounds from a variety of therapeutic classes to perform a pilot screening assay using MitoTox Reporter cells and a standard multiplate reader. […] To perform the assays, we prepared master stocks for each compound in 0.2% DMSO. Assays were performed with compounds at final concentrations of 1, 5, and 10 μM and the response of MitoTox Reporter cells were measured at 5, 10, 30, and 60 minutes. […] As a negative control we selected a compound with no reported side-effects.

[2] = test system: HepG2 cells; design: method as in PMID 22689143; details: cited from earlier work; for EC50: Seahorse technology, read-out: Concentration required to change the OCR and ECAR by 50%
[3] = test system: mitochondrial membrane potential (MMP); details: treatment time 6 hours; ref Li et al., 2014 [50]; read-out: IC50, MMP; cited from earlier work
[4] = test system: ATP; details: read-out: IC50, ATP depletion; cited from earlier work
[5] = test system: MDA-MB-231 cells stably expressing the FRET lactate indicator Laconic (MitoTox Reporter); test: MitoToxy assay: toxicity-induced lactate accumulation in MitoTox Reporter cells, 96-well plate reader, with 50 μM pCMBS; format: cell-based
Description: as §1, §2

[6] = test system: clonal MDA-MB-231 cells expressing Laconic; test: Single-cell lactate imaging of MitoTox Reporter cells; format: cell-based; details: 32 μM rotenone, 16 μM antimycin, 80 μM oligomycin, 10 μM myxothiazol
Source text: To generate a cell system with a high signal-to-noise ratio suitable for standard multiplate readers, we developed a clonal cell line with high levels and homogeneous Laconic expression. To do so, we produced a lentivirus particle to infect and transduce Laconic in MDA-MB-231 cells. From pooled cells with diverse levels of Laconic expression we selected high expression clones through FACS. […] We termed this cell line “MitoTox Reporter”. Exposure of these cells to classical mitochondrial poisons produced a robust increase in the fluorescent signal, indicating acute toxicity-induced lactate accumulation. […] With this evidence in hand, cells were tested in a multi-well plate reader.
Fig 3 Characterization of “MitoTox reporter” cell line. A) Confocal images from FACS selected clonal MDA-MB-231 cells expressing Laconic. Size bars for 20x and 60x represent 100 μm and 10 μm, respectively. Cytosolic lactate accumulation induced by treatment with: B) 32 μM rotenone, C) 16 μM of antimycin, D) 80 μM of oligomycin, and 10 μM myxothiazol. Each trace is the average of ten cells from one representative experiment.

[7] = test system: glutathione (GSH); design: method as in Li et al., 2014 [50]; details: treatment time 6 hours; ref Li et al., 2014 [50]; cited from earlier work
[8] = test system: cell viability; design: method as in Li et al., 2014 [50]; details: treatment time 6 hours; ref Li et al., 2014 [50]; cited from earlier work
[9] = test system: reactive oxygen species (ROS); design: method as in Li et al., 2014 [50]; details: treatment time 6 hours; ref Li et al., 2014 [50]; cited from earlier work
[10] = test system: HepG2 cells; design: method as in Nadanaciva et al., 2012 [55]; details: treatment time 0.03 hours; ref Nadanaciva et al., 2012 [55]; cited from earlier work
[11] = test system: HepG2 cells; design: method as in Nadanaciva et al., 2012 [55]; details: treatment time 0.03 hours; ref Nadanaciva et al., 2012 [55]; cited from earlier work; remark: listed apart in the source
[12] = test system: extracellular acidification; design: method as in Hynes et al., 2013 [72]; details: treatment time 0.13 hours; ref Hynes et al., 2013 [72]; cited from earlier work
[13] = test system: oxygen consumption; design: method as in Hynes et al., 2013 [72]; details: treatment time 0.13 hours; ref Hynes et al., 2013 [72]; cited from earlier work
[14] = test system: HepG2 cells; design: method as in Marroquin et al., 2007 [35]; details: treatment time 24 hours; approximated IC50 directly from plotted data in the original paper; ref Marroquin et al., 2007 [35]; cited from earlier work
[15] = test system: primary culture of astrocytes from the mouse cortex expressing Laconic; test: Single-cell lactate imaging (Laconic) in primary culture of cortical astrocytes; format: cell-based
Description: Animals used for primary cultures were mixed F1 male mice (C57BL/6J × CBA/J), kept in an animal room under SPF conditions at a room temperature of 20 ± 2°C, in a 12/12-h light/dark cycle and with free access to water and food. Mixed cortical cultures of neuronal and glia cells (1 –to 3-day-old neonates) was cultured in Neurobasal medium (Gibco) supplemented with 5 mM glucose and B27. Cells were seeded on petri dishes and superfused with KRH HEPES pH 7.4. The lactate imaging experiments with single-cell resolution were performed using cultured astrocytes at 11–14 days post-dissection. Real time experiments were performed with KRH HEPES bathing solution containing (in mM) 136 NaCl, 3 KCl, 1.25 CaCl2, 1.25 MgCl2, 10 HEPES/Tris and pH 7.2 at 36°C with 300 mOsm, without carbon sources for mitochondrial toxicant experiments and 2 mM glucose and 1 mM lactate for Warburg index determination. Experiments were performed in upright Olympus FV1000 confocal microscope equipped with a 20X water-immersion objective (numerical aperture, 1.0) and a 440 nm solid-state laser.
To plot the data, we used a ratio between mTFP and Venus channels. This ratio is proportional to lactate levels, since its binding to the sensor produced a decrease in FRET efficiency. This ratio was expressed in two formulas described below: NormalizedΔR=R(mTFP/Venus)/R(mTFP/Venus)min
With the aim of testing if this observation occurs in general and if azide induced-lactate accumulation can be reproduced using another mitochondrial toxicant with a different molecular target, we performed single-cell experiments exposing primary culture of astrocytes from the mouse cortex expressing Laconic (Fig 1A) to different mitochondria inhibitors that block the ETC at different levels (Fig 1C). To take advantage of the maximal dynamic range of the lactate FRET sensor the baseline measurements were performed using buffer without carbon sources to force start the experiments with lactate levels below 100 μM.
Each data point is from an average of ten cells from three independent experiments.

[16] = test system: MitoTox reporter cells; details: 32 μM rotenone, 16 μM antimycin, 5 mM azide, 80 μM oligomycin, 10 μM myxothiazol; 5, 10, 30, 60 minutes; 37°C
Description: as §1, with “Experiments consisted in washing out the culture media using KRH HEPES buffer containing (mM) 136 NaCl, 3 KCl, 1.25 CaCl2, 1.25 MgCl2, 10 HEPES/Tris and pH 7.2 at 37°C with 300 mOsm.” left out, “In experiments were pCMBS was used to block lactate exit, the inhibitor was added simultaneously with the mitochondrial toxicants. Data was collected in triplicated after 5, 10, 30, and 60 minutes of incubation.” left out, “filters. […]” for “filters.”

[17] = dose-response, treatment time 0.5 hours (Fig 8 legend: 10 minutes), 37°C, read-out: IC50 (toxicity-induced lactate accumulation, MitoToxy)
[18] = 32 μM rotenone, 16 μM antimycin, 5 mM azide, 80 μM oligomycin, buffer without carbon sources

CN(CCOc1ccc(CC2SC(=O)NC2=O)cc1)c1ccccn1 (stereo not drawn) [rosiglitazone]
ΔR% (lactate accumulation) ([1]; 10 μM): over 14% | Concentration at which toxicity / mitochondrial effects were detected in the pilot screening [1]: 5 µM | Effect on OCR and ECAR ([2]; between 0.13 and 100 μM): no effects were detected | IC50 [3]: > 1000 µM

Cc1c(C)c2c(c(C)c1O)CCC(C)(COc1ccc(CC3SC(=O)NC3=O)cc1)O2 (stereo not drawn) [troglitazone]
IC50 [4]: 28 µM and 31.4 µM | ΔR% (lactate accumulation) ([1]; 5 μM): The effect was also detected | ΔR% (lactate accumulation) ([1]; 10 μM): over 14% | Concentration at which toxicity / mitochondrial effects were detected in the pilot screening [1]: 5 µM | EC50 [2]: > 100 µM | IC50 [3]: 176 µM

CO/C(=C/C(N)=O)[C@H](C)[C@H](/C=C/c1csc(-c2csc([C@@H](C)/C=C/C=C/C(C)C)n2)n1)OC [myxothiazol]
IC50 [5, 17]: 1.2 µM | Intracellular lactate levels in MitoTox Reporter cells (single-cell) [6]: acute, fast, and robust increase of intracellular lactate levels | IC50 [7]: > 1000 µM | IC50 [8]: 183 µM | IC50 [3]: 1.2 µM | IC50 [9]: 3.3 µM

C=C(C)[C@H]1Cc2c(ccc3c2O[C@@H]2COc4cc(OC)c(OC)cc4[C@@H]2C3=O)O1 [rotenone]
IC50 [10]: 0.371 µM | IC50 ([5]; Homo sapiens, MDA-MB-231, read-out: IC50 (toxicity-induced lactate accumulation)): 0.0027 ± 0.00141 µM | IC50 ([5]; Homo sapiens, MDA-MB-231, read-out: IC50 (toxicity-induced lactate accumulation, MitoToxy)): 0.0025 µM | Intracellular lactate levels in MitoTox Reporter cells (single-cell) [6]: acute, fast, and robust increase of intracellular lactate levels | IC50 [11]: 0.263 µM | IC50 [12]: 0.002 µM | IC50 [13]: 0.02 µM | IC50 [14]: 0.05 µM | IC50 [7]: 518 µM | Cytosolic lactate accumulation in astrocytes [15, 18]: induced an acute cytosolic lactate accumulation | IC50 [8]: > 1000 µM | IC50 [3]: 20.3 µM | IC50 [9]: 10.5 µM

CC1(COc2ccc(CC3SC(=O)NC3=O)cc2)CCCCC1 (stereo not drawn) [ciglitazone]
ΔR% (lactate accumulation) ([1]; 10 μM): over 14% | Concentration at which toxicity / mitochondrial effects were detected in the pilot screening [1]: 5 µM | EC50 [2]: > 100 µM | IC50 [3]: 136 µM

antimycin
IC50 [10]: 0.1 µM | IC50 [5, 17]: 0.00024 µM | Intracellular lactate levels in MitoTox Reporter cells (single-cell) [6]: acute, fast, and robust increase of intracellular lactate levels | IC50 [11]: 0.004 µM | IC50 [12]: 0.074 µM | IC50 [13]: 0.039 µM | IC50 [14]: 0.006 µM | IC50 [7]: 228 µM | Cytosolic lactate accumulation in astrocytes [15, 18]: induced an acute cytosolic lactate accumulation | IC50 [8]: 291 µM | IC50 [3]: 2.1 µM | IC50 [9]: 17.7 µM

CC[C@H]1/C=C/C=C/C[C@@H](C)[C@H](O)[C@@](C)(O)C(=O)[C@@H](C)[C@H](O)[C@@H](C)C(=O)[C@@H](C)[C@H](O)[C@@H](C)/C=C/C(=O)O[C@@H]2[C@H](C)[C@H](CC1)O[C@]1(CC[C@H](C)[C@H](C[C@@H](C)O)O1)[C@H]2C [oligomycin]
IC50 [10]: 1.1 µM | IC50 ([5]; Homo sapiens, MDA-MB-231, dose-response, treatment time 0.5 hours (Fig 8 legend: 10 minutes), 37°C, read-out: IC50 (toxicity-induced lactate accumulation, MitoToxy)): 0.038 µM | Intracellular lactate levels in MitoTox Reporter cells (single-cell) [6]: acute, fast, and robust increase of intracellular lactate levels | IC50 [11]: 0.92 µM | IC50 [12]: 0.077 µM | IC50 [13]: 0.038 µM | IC50 [14]: 0.005 µM | IC50 [7]: 161 µM | Cytosolic lactate accumulation in astrocytes [15, 18]: induced an acute cytosolic lactate accumulation | IC50 [8]: 182 µM | IC50 [3]: 15.6 µM | IC50 [9]: > 1000 µM

[N-]=[N+]=[N-].[Na+] [azide]
IC50 ([5]; read-out: IC50 (toxicity-induced lactate accumulation, MitoToxy)): 1440 µM | Lactate accumulation (ΔR%) in 96-well plates without pCMBS [16]: declined after 5 minutes | Cytosolic lactate accumulation in astrocytes [15]: induced an acute cytosolic lactate accumulation
